In brackets after ≈: the same amount, converted by molar mass.
Key:
[1] = test system: Gardnerella vaginalis; assay: MIC, agar dilution; type: cell-based
Description: (§1) Micrococcus pyogenes (ATCC 11631), Bacillus subtilis (ATCC 11774), Lactobacillus iners (ATCC 55195), Escherichia coli (ATCC 11775), Proteus mirabilis (ATCC 14153), Klebsiella pneumoniae (ATCC 10031), Shigella sonnei (ATCC 11060), Neisseria gonorrhoeae (ATCC 19424), Salmonella typhimurium (ATCC 14028) Salmonella paratyphi B (ATCC 10719), Helicobacter pylori (ATCC 43504) and several strains of Atopobium vaginae and Gardnerella vaginalis.
(§2) Strains were prepared from freeze-dried pellets. An isolation of the suspensions (to test the strains purity) and a strains massive growth were made by streaking microbial suspensions on agar media. The bacterial colonies on agar plates were collected with 3-5 mL of specific liquid medium+15% glycerol and then the aliquots were frozen at −80° C.
(§3) Compounds Minimal Inhibitory Concentration (MIC) was determined through broth micro-dilution susceptibility testing with a method developed following the National Committee for Clinical Laboratory Standards (CLSI) M07-A8 and M11-A7 references. Assays were carried out in specific media (Table 3). The tests were performed either following the broth microdilution assay or the agar dilution assay. Compounds stock solutions were made at 12.8 mg/mL in DMSO 100%. A series of twofold dilutions were then prepared using the strain specific broth. Final concentrations were from 0.125 μg/mL to 64 μg/mL at 1% DMSO. MIC is defined as the lowest concentration of antibacterial agent which prevent any visible growth.

[2] = test system: Atopobium vaginae; assay: MIC, agar dilution; type: cell-based; settings: Fannyhessea vaginae
Description: as §1, §2, §3

[3] = test system: Lactobacillus iners ATCC 55195; assay: MIC, broth microdilution; type: cell-based; settings: Lactobacillus iners, ATCC55195
Description: as §1, §2, §3

[4] = test system: Escherichia coli ATCC 11775; assay: MIC, broth microdilution; type: cell-based; settings: Escherichia coli, ATCC11775
Description: as §1, §2, §3

[5] = test system: Proteus mirabilis ATCC 14153; assay: MIC, broth microdilution; type: cell-based; settings: Proteus mirabilis, ATCC14153
Description: as §1, §2, §3

[6] = test system: Salmonella typhimurium ATCC 14028; assay: MIC, broth microdilution; type: cell-based; settings: Salmonella enterica
Description: as §1, §2, §3

[7] = test system: Micrococcus pyogenes ATCC 11631; assay: MIC, broth microdilution; type: cell-based; settings: Staphylococcus aureus, ATCC11631
Description: as §1, §2, §3

[8] = test system: Klebsiella pneumonia ATCC 10031; assay: MIC, broth microdilution; type: cell-based; settings: Klebsiella pneumoniae, ATCC10031
Description: as §1, §2, §3

[9] = test system: Bacillus subtilis; assay: MIC, broth microdilution; type: cell-based
Description: as §1, §2, §3

[10] = test system: Neisseria gonorrhoeae ATCC 19424; assay: MIC, broth microdilution; type: cell-based; settings: Neisseria gonorrhoeae, ATCC19424
Description: as §1, §2, §3

[11] = test system: Helicobacter pylori ATCC 43504; assay: MIC, broth microdilution; type: cell-based; settings: Helicobacter pylori, ATCC43504
Description: as §1, §2, §3

[12] = test system: Salmonella paratyphi B ATCC 10719; assay: MIC, broth microdilution; type: cell-based; settings: Salmonella enterica
Description: as §1, §2, §3

[13] = test system: Shigella sonnei ATCC 11060; assay: MIC, broth microdilution; type: cell-based; settings: ATCC11060
Description: as §1, §2, §3

[14] = in vivo; settings: male, rat, iv, 2 mg/kg
[15] = in vivo; settings: male, rat, po, 15 mg/kg

CSCC1CN(/N=C/c2ccc([N+](=O)[O-])o2)C(=O)O1 (racemic) [Nifuratel racemate, Nifuratel]
MIC ([1]; ATCC14018, agar dilution, Gardnerella vaginalis ATCC 14018): 2 µg/mL (≈ 7.01 µM)
MIC ([1]; agar dilution, Gardnerella vaginalis C2): 8 µg/mL (≈ 28 µM)
MIC ([1]; agar dilution, Gardnerella vaginalis D2): 4 µg/mL (≈ 14 µM)
MIC ([1]; agar dilution, Gardnerella vaginalis E2): 2 µg/mL (≈ 7.01 µM)
MIC ([1]; agar dilution, Gardnerella vaginalis G2): 2 µg/mL (≈ 7.01 µM)
MIC ([1]; agar dilution, Gardnerella vaginalis H2): 1 µg/mL (≈ 3.51 µM)
MIC ([1]; agar dilution, Gardnerella vaginalis J2): 2 µg/mL (≈ 7.01 µM)
MIC ([1]; agar dilution, Gardnerella vaginalis K2): 4 µg/mL (≈ 14 µM)
MIC ([2]; CCUG38953): 0.125 µg/mL (≈ 0.438 µM)
MIC ([2]; CCUG39382): 0.25 µg/mL (≈ 0.876 µM)
MIC ([2]; CCUG42099): 0.5 µg/mL (≈ 1.75 µM)
MIC ([2]; CCUG43049): 0.25 µg/mL (≈ 0.876 µM)
MIC ([2]; CCUG44061): 0.5 µg/mL (≈ 1.75 µM)
MIC ([2]; CCUG44156): 0.5 µg/mL (≈ 1.75 µM)
MIC ([2]; CCUG48515): 1 µg/mL (≈ 3.51 µM)
MIC ([2]; CCUG55226): 1 µg/mL (≈ 3.51 µM)
MIC ([2]; CCUG55227): 0.25 µg/mL (≈ 0.876 µM)
MIC [3]: 16 µg/mL (≈ 56.1 µM)
MIC [4]: 1 µg/mL (≈ 3.51 µM)
MIC [5]: 8 µg/mL (≈ 28 µM)
MIC [6]: 4 µg/mL (≈ 14 µM)
MIC [7]: 1 µg/mL (≈ 3.51 µM)
MIC [8]: 2 µg/mL (≈ 7.01 µM)
MIC [9]: 0.5 µg/mL (≈ 1.75 µM)
MIC [10]: 0.25 µg/mL (≈ 0.876 µM)
MIC [11]: 0.125 µg/mL (≈ 0.438 µM)
MIC [12]: 2 µg/mL (≈ 7.01 µM)
MIC [13]: 1 µg/mL (≈ 3.51 µM)
AUC(0-inf) [14]: 125 ng·h/mL
AUC(0-t) [14]: 122 ng·h/mL
Clast [14]: 5 ng/mL
Cmax [14]: 555 ng/mL
MRT [14]: 13 min
Tlast [14]: 120 min
Tmax [14]: 2 min
VSR [14]: 4.5 L/kg
clearance [14]: 267 mL/min/kg
half-life [14]: 24 min
AUC(0-t) [15]: 20.3 ng·h/mL
Clast [15]: 3 ng/mL
Cmax [15]: 8 ng/mL
MRT [15]: 109 min
Tlast [15]: 240 min
Tmax [15]: 30 min
half-life [15]: 182 min

Reference: patent US9284306B2, “(R)-Nifuratel, its use for the treatment of infections and synthesis of (R) and (S)-Nifuratel” (POLICHEM SA, priority 2012, dated 2016)
